The term pIC50 denotes −log10 of the IC50, conventionally taken in molar units.

In test [1] the target is T1, Microsomal triglyceride transfer protein (MTP) from bovine liver (Bos taurus, UniProt P55156).
T1 construct: from tissue; host or cells: bovine liver
T1 sequence (P55156 12-887): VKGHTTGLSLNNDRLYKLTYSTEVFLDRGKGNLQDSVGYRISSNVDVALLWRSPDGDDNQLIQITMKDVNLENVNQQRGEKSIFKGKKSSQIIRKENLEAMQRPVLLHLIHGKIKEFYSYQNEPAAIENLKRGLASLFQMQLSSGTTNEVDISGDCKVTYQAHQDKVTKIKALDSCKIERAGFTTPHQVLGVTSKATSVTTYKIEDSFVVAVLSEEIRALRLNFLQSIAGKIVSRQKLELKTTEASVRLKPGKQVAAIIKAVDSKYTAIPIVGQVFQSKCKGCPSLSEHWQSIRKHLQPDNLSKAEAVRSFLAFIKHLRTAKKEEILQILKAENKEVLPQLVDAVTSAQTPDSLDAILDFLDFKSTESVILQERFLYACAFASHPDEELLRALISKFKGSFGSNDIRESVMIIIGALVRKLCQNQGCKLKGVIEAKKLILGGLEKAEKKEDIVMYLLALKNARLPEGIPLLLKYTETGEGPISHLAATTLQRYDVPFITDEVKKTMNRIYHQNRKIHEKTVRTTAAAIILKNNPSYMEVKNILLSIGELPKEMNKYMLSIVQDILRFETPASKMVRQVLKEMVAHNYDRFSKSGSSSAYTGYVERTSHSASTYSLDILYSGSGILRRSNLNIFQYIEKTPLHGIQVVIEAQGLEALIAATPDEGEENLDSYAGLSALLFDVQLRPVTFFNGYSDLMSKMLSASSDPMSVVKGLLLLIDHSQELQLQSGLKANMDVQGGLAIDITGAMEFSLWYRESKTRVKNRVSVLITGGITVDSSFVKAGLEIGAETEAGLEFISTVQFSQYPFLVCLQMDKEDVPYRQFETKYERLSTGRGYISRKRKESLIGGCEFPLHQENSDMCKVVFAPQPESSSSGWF
T1 sequence (P05307 21-510 partner): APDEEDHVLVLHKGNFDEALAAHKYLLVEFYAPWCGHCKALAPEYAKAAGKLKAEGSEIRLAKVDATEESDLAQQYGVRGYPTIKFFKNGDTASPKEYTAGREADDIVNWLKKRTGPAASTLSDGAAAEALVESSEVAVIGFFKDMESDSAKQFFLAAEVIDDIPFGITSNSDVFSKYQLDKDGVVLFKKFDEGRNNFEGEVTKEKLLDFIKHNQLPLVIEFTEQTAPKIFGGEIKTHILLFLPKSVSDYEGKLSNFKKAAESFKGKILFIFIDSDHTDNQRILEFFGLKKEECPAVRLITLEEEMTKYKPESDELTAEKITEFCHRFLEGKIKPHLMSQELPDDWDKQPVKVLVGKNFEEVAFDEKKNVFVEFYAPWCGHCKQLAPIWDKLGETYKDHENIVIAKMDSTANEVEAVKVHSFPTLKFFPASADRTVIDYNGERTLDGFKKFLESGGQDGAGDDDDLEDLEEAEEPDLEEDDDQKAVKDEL
The test can be described thus: Test Example 1: inhibition of interliposomal triglyceride (TG) transfer activity by MTP (also used for metabolites in Test Example 8). The format is biochemical. As to conditions: MTP-mediated 14C-triolein transfer between liposomes, 37° C., one hour; read-out: Test Example 1 MTP inhibition IC50. A digest of the protocol: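 Partially purified bovine liver MTP (DEAE chromatography) incubated 1 h at 37 °C, pH 7.4, with ^14C-triolein-labelled donor SUVs and unlabelled acceptor SUVs plus compound in DMSO. Acceptor radioactivity, blank-corrected, gave % inhibition versus DMSO; IC50 derived. Metabolites tested likewise.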

In another test the test system is Syrian hamsters. As to the kind of experiment: Test Example 3: olive oil-loading test (inhibition of fat absorption, plasma TG). The format is in vivo. The conditions noted are these: Mesocricetus auratus, po, plasma TG 4 hours after olive oil, read-out: Test Example 3 Inhibition of fat absorption after olive oil-loading in Hamster Inhibition rate (%); for inhibition in vivo at 3 mg/kg: 3 mg/kg p.o.; for inhibition in vivo at 10 mg/kg: 10 mg/kg p.o. As to the method: Syrian hamsters (9-11 weeks of age) under non-fasted conditions were used in the test. Blood was collected previously from orbital venous plexus, and a sample was suspended in 0.5% methyl cellulose (vehicle) and the suspension was forced to be administered orally to the hamsters at a dose of 0.3, 1, 3 or 10 mg/2 mL/kg. Only vehicle in the same volume was administered to the control group. Olive oil (2 mL/kg) was forced to be administered orally 30 minutes after the administration of the sample, and blood was collected from orbital venous plexus 4 hours later. Plasma was recovered from the blood, and the amount of triglyceride (TG) in the plasma was determined by automatic analyzer (Hitachi Co.). The data was expressed in terms of ΔTG(mg/dL)=the value at 4th hr minus the value before administration. Inhibition rate (%) was calculated from the data obtained on the basis of the following equation.
Inhibition rate (%)=100×(1 minus ΔTG of sample group/ΔTG of control group).

pIC50: −log10 of the molar value.

Turning to `CCOC(=O)C(COC(=O)Cc1ccc(OC(=O)c2ccccc2-c2ccc(C(F)(F)F)cc2)cc1)(C(=O)OCC)c1ccccc1` [Example 1-2, 2-Phenyl-2-{2-[4-(4′-trifluoromethylbiphenyl-2-carbonyloxy)phenyl]acetoxymethyl}malonic acid diethyl ester], in test [1], the pIC50 was 7.38.

As for `CCNC(=O)C(CCOC(=O)Cc1ccc(NC(=O)c2ccccc2-c2ccc(C(F)(F)F)cc2)c(OC)c1)(C(=O)NCC)c1ccccc1` [Example 3-6], the inhibition in vivo at 3 mg/kg in the test on Syrian hamsters worked out at 52%. The pIC50 in test [1] is 8.30.

As for `CCNC(=O)C(COC(=O)Cc1ccc(NC(=O)c2ccccc2-c2ccc(C(F)(F)F)cc2)c(CC)c1)(C(=O)NCC)c1ccccc1` [Example 1-5, {3-Ethyl-4-[(4′-trifluoromethylbiphenyl-2-carbonyl)amino]phenyl}acetic acid 2,2-bisethylcarbamoyl-2-phenylethyl ester], the inhibition in vivo at 3 mg/kg in the test with Syrian hamsters amounted to 59%. Also, in test [1], the negative-log IC50 (pIC50) was 9.18.

Take `CCNC(=O)C(COC(=O)Cc1ccc(NC(=O)c2ccccc2-c2ccc(C(F)(F)F)cc2)cc1)(C(=O)NCC)c1ccccc1` [Example 1, 4-[(4′-Trifluoromethylbiphenyl-2-carbonyl)amino]phenyl-acetic acid 2,2-bisethylcarbamoyl-2-phenylethyl ester]: in test [1], the pIC50 was 9.22.

As to `CCCNC(=O)C(COC(=O)Cc1ccc(NC(=O)c2ccccc2-c2ccc(C(F)(F)F)cc2)c(C(=O)N(C)C)c1)(C(=O)NCCC)c1ccccc1` [Example 2-2], the inhibition in vivo at 10 mg/kg in the test with Syrian hamsters was found to be 96%. The pIC50 in test [1] was 8.85.

In the case of `CCNC(=O)C(COC(=O)Cc1ccc(NC(=O)c2ccccc2-c2ccc(C(F)(F)F)cc2)c(C(=O)NC)c1)(C(=O)NCC)c1ccccc1` [Example 2-3], the inhibition in vivo at 3 mg/kg in the test with Syrian hamsters was 68%. Besides, the pIC50 in test [1] is 8.68.

As for `CCNC(=O)C(CCOC(=O)Cc1ccc(NC(=O)c2ccccc2-c2ccc(C(F)(F)F)cc2)c(C(=O)N(C)C)c1)(C(=O)NCC)c1ccccc1` [Example 2-4], the inhibition in vivo at 3 mg/kg in the test with Syrian hamsters was determined as 78%. For the same compound, in test [1], the pIC50 is 9.03.

In the case of `O=C(Cc1ccc(NC(=O)c2ccccc2-c2ccc(C(F)(F)F)cc2)cc1)OCC(C(=O)NCC(F)(F)F)(C(=O)NCC(F)(F)F)c1ccccc1` [Example 1-12], the pIC50 in test [1] is 8.12.

On to `CCOC(=O)C(COC(=O)Cc1ccc(NC(=O)c2ccccc2-c2ccc(C(F)(F)F)cc2)c(C(=O)N(C)C)c1)(C(=O)OCC)c1ccccc1` [Example 2-5], for which, in the test on Syrian hamsters, the inhibition in vivo at 3 mg/kg is 70%. Besides, the pIC50 in test [1] was 8.85.

As for `COC(=O)C(COC(=O)Cc1ccc(NC(=O)c2ccccc2-c2ccc(C(F)(F)F)cc2)cc1)(C(=O)OC)c1ccccc1` [Example 1-13], the pIC50 in test [1] was 8.24.

For the compound `CCNC(=O)C(COC(=O)Cc1ccc(NC(=O)c2ccccc2-c2ccc(C(F)(F)F)cc2)c(OC)c1)(C(=O)NCC)c1ccccc1` [Example 3-3], the inhibition in vivo at 10 mg/kg in the test with Syrian hamsters is 78%. The negative logarithm of the IC50 (pIC50) in test [1] was 9.40.

For the compound `O=C(Cc1ccc(NC(=O)c2ccccc2-c2ccc(C(F)(F)F)cc2)cc1)OCC1(C(=O)NCC(F)(F)F)c2ccccc2-c2ccccc21` [Example 1-6], the inhibition in vivo at 10 mg/kg in the test on Syrian hamsters was 54%. Also, the pIC50 in test [1] was 8.92.

With `CCNC(=O)C(CCCOC(=O)Cc1ccc(NC(=O)c2ccccc2-c2ccc(C(F)(F)F)cc2)c(C(=O)N(C)C)c1)(C(=O)NCC)c1ccccc1` [Example 2-7], the inhibition in vivo at 3 mg/kg with Syrian hamsters stood at 58%. In addition, in test [1], the pIC50 was 8.96.

Turning to `CCNC(=O)C(COC(=O)Cc1ccc(NC(=O)c2ccccc2-c2ccc(C(F)(F)F)cc2)c(OC(C)C)c1)(C(=O)NCC)c1ccccc1` [Example 3-10], the inhibition in vivo at 3 mg/kg with Syrian hamsters turned out to be 85%. Further, the negative-log IC50 (pIC50) in test [1] is 8.57.

Consider `CCOC(=O)C(COC(=O)Cc1ccc(NC(=O)c2ccccc2-c2ccc(C(F)(F)F)cc2)c(C(=O)N2CCCC2)c1)(C(=O)OCC)c1ccccc1` [Example 2-22], for which the inhibition in vivo at 3 mg/kg in the test with Syrian hamsters amounted to 61%. Also, the pIC50 in test [1] is 8.85.

For `CCNC(=O)C(COC(=O)Cc1ccc(NC(=O)c2ccccc2-c2ccc(C(F)(F)F)cc2)c(C(=O)N(C)C)c1)(C(=O)NCC)c1ccccc1` [Example 2, {3-Dimethylcarbamoyl-4-[(4′-trifluoromethylbiphenyl-2-carbonyl)amino]phenyl}acetic acid 2,2-bisethylcarbamoyl-2-phenylethyl ester], the inhibition in vivo at 10 mg/kg in the test with Syrian hamsters was 95%. Moreover, the pIC50 in test [1] was 9.21.

Regarding `CCCNC(=O)C(COC(=O)Cc1ccc(NC(=O)c2ccccc2-c2ccc(C(F)(F)F)cc2)cc1)(C(=O)NCCC)c1ccccc1` [Example 1-35], the negative-log IC50 (pIC50) in test [1] was 9.00.

In the case of `COC(=O)C(COC(=O)Cc1ccc(NC(=O)c2ccccc2-c2ccc(C(F)(F)F)cc2)c(C(=O)N(C)C)c1)(C(=O)OC)c1ccccc1` [Example 2-39], in the test on Syrian hamsters, the inhibition in vivo at 3 mg/kg amounted to 68%. The pIC50 in test [1] was 9.13.

With `CCNC(=O)C(CCOC(=O)Cc1ccc(NC(=O)c2ccccc2-c2ccc(C(F)(F)F)cc2)c(OCC)c1)(C(=O)NCC)c1ccccc1` [Example 3-8], in the test on Syrian hamsters, the inhibition in vivo at 3 mg/kg amounted to 60%. Further, the pIC50 in test [1] is 8.43.

The record behind these values is patent publication US7625948B2, “Ester compound and medicinal use thereof” (Japan Tobacco Inc., priority 2002, dated 2009).
